Measurements published in patent US12157730B2, “Heteroaryl derivative, method for producing same, and pharmaceutical composition comprising same as effective component” (VORONOI INC., priority 2019, dated 2024).

Molecular target: T1, Ba/F3 cell EGFR Exon20 ins NPH (Homo sapiens, UniProt P00533, INS773NPH)
T1 construct: expressed in transfected cells; host or cells: Ba/F3
Assay: Ba/F3 cell proliferation suppression, EGFR Exon20 ins NPH
Format: cell-based
Settings: GI50 class; Ba/F3 cell line with NPH inserted at Exon20 of EGFR; 72 hours
Procedure, shortened: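 After 72 h compound exposure (twelve 3-fold steps, 0.3 nM–50 um final), live cells were measured by CellTiter-Glo luminescence and growth expressed as % of control to derive GI50. Cells were seeded at 3000–5000 per well a day earlier; Ba/F3 medium contained IL-3; three repeats.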

Row | Compound | Ba/F3 (NPH) Activity
1 | C=CC(=O)Nc1cc(Nc2cc(N3OCC[C@@H]3c3cc(F)cc(F)c3)ncn2)c(OC)cc1N1CCC(N2CCN(C)C[C@@H]2C)CC1 [compound 762, N-(5-((6-((R)-3-(3,5-difluorophenyl)isoxazolidine-2-yl)pyrimidine-4-yl)amino)-2-(4-((S)-2,4-dimethylpiperazine-1-yl)piperidine-1-yl)-4-methoxyphenyl) acrylamide] | A (GI50 < 50 nM)
2 | C=CC(=O)Nc1cc(Nc2cc(N3OCC[C@@H]3c3cc(F)cc(Cl)c3)ncn2)c(OC)cc1N1CCC(N2C[C@H]3C[C@@H]2CO3)CC1 [compound 590, N-(2-(4-((1R,4R)-2-oxa-5-azabicyclo[2.2.1]heptane-5-yl)piperidine-1-yl)-5-((6-((R)-3-(3-chloro-5-fluorophenyl)isoxazolidine-2-yl)pyrimidine-4-yl)amino)-4-methoxyphenyl) acrylamide] | A (GI50 < 50 nM)
3 | C=CCN1CCN(C2CCN(c3cc(OC)c(Nc4cc(N5OCC[C@@H]5c5cccc(C#N)c5)ncn4)cc3NC(=O)C=C)CC2)CC1 [Example 210, N-(2-(4-(4-allylpiperazine-1-yl)piperidine-1-yl)-5-((6-((R)-3-(3-cyanophenyl)isoxazolidine-2-yl)pyrimidine-4-yl)amino)-4-methoxyphenyl) acrylamide] | A (GI50 < 50 nM)
4 | C=CC(=O)Nc1cc(Nc2cc(N3OCC[C@@H]3c3ccc(F)c(Cl)c3)ncn2)c(OC)cc1N1CCC(N2CCN(C)[C@H](C)C2)CC1 [compound 901, N-(5-((6-((R)-3-(3-chloro-4-fluorophenyl)isoxazolidine-2-yl)pyrimidine-4-yl)amino)-2-(4-((R)-3,4-dimethylpiperazine-1-yl)piperidine-1-yl)-4-methoxyphenyl) acrylamide] | A (GI50 < 50 nM)
5 | C=CC(=O)Nc1cc(Nc2cc(N3OCC[C@@H]3c3cccc(C#N)c3)ncn2)c(OC)cc1N1CCC(N2CCC(F)(F)CC2)CC1 [compound 433, N-(5-((6-((R)-3-(3-cyanophenyl)isoxazolidine-2-yl)pyrimidine-4-yl)amino)-2-(4,4-difluoro-[1,4'-bipiperidine]-1'-yl)-4-methoxyphenyl) acrylamide] | A (GI50 < 50 nM)
6 | C=CC(=O)Nc1cc(Nc2cc(N3OCC[C@@H]3c3ccc(F)c(F)c3)ncn2)c(OC)cc1N1CCC(N2CCN(C(C)C)CC2)CC1 [compound 501, N-(5-((6-((R)-3-(3,4-difluorophenyl)isoxazolidine-2-yl)pyrimidine-4-yl)amino)-2-(4-(4-isopropylpiperazine-1-yl)piperidine-1-yl)-4-methoxyphenyl) acrylamide] | A (GI50 < 50 nM)
7 | C#Cc1cccc([C@H]2CCON2c2cc(Nc3cc(NC(=O)C=C)c(N4CCC(N5C[C@@H](C)O[C@@H](C)C5)CC4)cc3OC)ncn2)c1 [compound 651, N-(2-(4-((2S,6R)-2,6-dimethylmorpholino)piperidine-1-yl)-5-((6-((R)-3-(3-ethynylphenyl)isoxazolidine-2-yl)pyrimidine-4-yl)amino)-4-methoxyphenyl) acrylamide] | A (GI50 < 50 nM)
8 | C=CC(=O)Nc1cc(Nc2cc(N3OCC[C@@H]3c3ccc(F)cc3)ncn2)c(OC)cc1N1CCC(N2CCC(N(C)C)CC2)CC1 [compound 870, N-(2-(4-(dimethylamino)-[1,4'-bipiperidine]-1'-yl)-5-((6-((R)-3-(4-fluorophenyl)isoxazolidine-2-yl)pyrimidine-4-yl)amino)-4-methoxyphenyl) acrylamide] | A (GI50 < 50 nM)
9 | C=CC(=O)Nc1cc(Nc2cc(N3OCC[C@@H]3c3cc(F)ccc3F)ncn2)c(OC)cc1N1CCC(N2CCN(C(C)=O)CC2)CC1 [compound 815, N-(2-(4-(4-acetylpiperazine-1-yl)piperidine-1-yl)-5-((6-((R)-3-(2,5-difluorophenyl)isoxazolidine-2-yl)pyrimidine-4-yl)amino)-4-methoxyphenyl) acrylamide] | A (GI50 < 50 nM)
10 | C=CC(=O)Nc1cc(Nc2cc(N3OCC[C@@H]3Cc3cc(F)cc(F)c3)ncn2)c(OC)cc1N1CCN(C2CC2)CC1 [compound 1032, N-(2-(4-cyclopropylpiperazine-1-yl)-5-((6-(S)-(3-(3,5-difluorobenzyl)isoxazolidine-2-yl)pyrimidine-4-yl)amino)-4-methoxyphenyl) acrylamide] | B (50 nM ≤ GI50 < 500 nM)
11 | C=CC(=O)Nc1cc(Nc2cc(N3OCC[C@@H]3c3cccc(Cl)c3F)ncn2)c(OC)cc1N1CCC(N2CCN(C(C)C)CC2)CC1 [compound 707, N-(5-((6-((R)-3-(3-chloro-2-fluorophenyl)isoxazolidine-2-yl)pyrimidine-4-yl)amino)-2-(4-(4-isopropylpiperazine-1-yl)piperidine-1-yl)-4-methoxyphenyl) acrylamide] | A (GI50 < 50 nM)
12 | C=CC(=O)Nc1cc(Nc2cc(N3OCC[C@@H]3c3ccc(Cl)c(Cl)c3)ncn2)c(OC)cc1N1CCC(N2CCN(C(C)C)CC2)CC1 [compound 689, N-(5-((6-((R)-3-(3,4-dichlorophenyl)isoxazolidine-2-yl)pyrimidine-4-yl)amino)-2-(4-(4-isopropylpiperazine-1-yl)piperidine-1-yl)-4-methoxyphenyl) acrylamide] | B (50 nM ≤ GI50 < 500 nM)
13 | C=CC(=O)Nc1cc(Nc2cc(N3OCC[C@@H]3c3cccs3)ncn2)c(OC)cc1N1CCC(N2C[C@H]3C[C@@H]2CO3)CC1 [compound 930, N-(2-(4-((1R,4R)-2-oxa-5-azabicyclo [2.2.1]heptane-5-yl)piperidine-1-yl)-4-methoxy-5-((6-((R)-3-(thiophene-2-yl)isoxazolidine-2-yl)pyrimidine-4-yl)amino)phenyl)acrylamide] | A (GI50 < 50 nM)
14 | C=CC(=O)Nc1cc(Nc2cc(N3OCC[C@@H]3Cc3cccc(N(C)C)c3)ncn2)c(OC)cc1N1CCC(N2CCN(C3CC3)CC2)CC1 [compound 1044, N-(2-(4-(4-cyclopropylpiperazine-1-yl)piperidine-1-yl)-5-((6-((S)-3-(3-(dimethylamino)benzyl)isoxazolidine-2-yl)pyrimidine-4-yl)amino)-4-methoxyphenyl) acrylamide] | B (50 nM ≤ GI50 < 500 nM)
15 | C=CC(=O)Nc1cc(Nc2cc(N3OCC[C@@H]3c3ccc(F)cc3)ncn2)c(OC)cc1N1CCC(N2CC[C@H](N(C)C)C2)CC1 [compound 811, N-(2-(4-((S)-3-(dimethylamino)pyrolidine-1-yl)piperidine-1-yl)-5-((6-((R)-3-(4-fluorophenyl)isoxazolidine-2-yl)pyrimidine-4-yl)amino)-4-methoxyphenyl) acrylamide] | A (GI50 < 50 nM)
16 | C=CC(=O)Nc1cc(Nc2cc(N3OCC[C@@H]3c3ccc(F)c(Cl)c3)ncn2)c(OC)cc1N1CCC(N2CCN(C3CCCC3)CC2)CC1 [Example 99, N-(5-((6-((R)-3-(3-chloro-4-fluorophenyl)isoxazolidine-2-yl)pyrimidine-4-yl)amino)-2-(4-(4-cyclopentylpiperazine-1-yl)piperidine-1-yl)-4-methoxyphenyl) acrylamide] | A (GI50 < 50 nM)
17 | C=CC(=O)Nc1cc(Nc2cc(N3OCC[C@@H]3c3ccc(Cl)c(Cl)c3)ncn2)c(OC)cc1N1CCC(N2CCN(C)CC2)CC1 [compound 681] | A (GI50 < 50 nM)
18 | C=CC(=O)Nc1cc(Nc2cc(N3OCC[C@@H]3c3cccc(C#N)c3)ncn2)c(OC)cc1N1CCC(N2CCN(CC)CC2)CC1 [compound 399, N-(5-((6-((R)-3-(3-cyanophenyl)isoxazolidine-2-yl)pyrimidine-4-yl)amino)-2-(4-(4-ethylpiperazine-1-yl)piperidine-1-yl)-4-methoxyphenyl) acrylamide] | B (50 nM ≤ GI50 < 500 nM)
19 | C#Cc1cccc([C@H]2CCON2c2cc(Nc3cc(NC(=O)C=C)c(N4CCC(N5CCN(C6CCC6)CC5)CC4)cc3OC)ncn2)c1 [Example 191, N-(2-(4-(4-cyclobutylpiperazine-1-yl)piperidine-1-yl)-5-((6-((R)-3-(3-ethynylphenyl)isoxazolidine-2-yl)pyrimidine-4-yl)amino)-4-methoxyphenyl) acrylamide] | A (GI50 < 50 nM)
20 | C=CC(=O)Nc1cc(Nc2cc(N3OCC[C@@H]3c3cc(F)cc(F)c3)ncn2)c(OC)cc1N1CCO[C@@H](C)C1 [compound 337, N-(5-((6-((R)-3-(3,5-difluorophenyl)isoxazolidine-2-yl)pyrimidine-4-yl)amino)-4-methoxy-2-((S)-2-methylmorpholino)phenyl)acrylamide] | B (50 nM ≤ GI50 < 500 nM)
21 | C=CC(=O)Nc1cc(Nc2cc(N3OCC[C@H]3c3c(F)cccc3F)ncn2)c(OC)cc1N1C[C@H]2CCN(C)[C@H]2C1 [compound 898, N-(5-((6-((S)-3-(2,6-difluorophenyl)isoxazolidine-2-yl)pyrimidine-4-yl)amino)-4-methoxy-2-((3aR,6aR)-1-methylhexahydropyrrolo [3,4-b]pyrrole-5(1H)-yl)phenyl) acrylamide] | C (500 nM ≤ GI50 < 5000 nM)
22 | N-(5-((6-((R)-3-(3,4- difluorophenyl) isoxazolidine-2-yl) pyrimidine-4-yl)amino)- 2-(4-((S)-3- (dimethylamino) pyrolidine-1-yl) piperidine-1-yl)-4- methoxyphenyl) acrylamide [compound 500] | A (GI50 < 50 nM)
23 | C=CC(=O)Nc1cc(Nc2cc(N3OCC[C@@H]3c3cccc(C)c3F)ncn2)c(OC)cc1N(C)CCN(C)C [compound 846, N-(2-((2-(dimethylamino)ethyl) (methyl)amino)-5-((6-((R)-3-(2-fluoro-3-methylphenyl)isoxazolidine-2-yl)pyrimidine-4-yl)amino)-4-methoxyphenyl) acrylamide] | A (GI50 < 50 nM)
